Reference: patent publication US5589497A, “Phenylimidazolidines” (Uclaf; Roussel, priority 1992, dated 1996)

Target: T1, androgenic receptors (rat prostate cytosol) (Rattus norvegicus, UniProt P15207)
T1 construct: from tissue; host or cells: prostate cytosol (209,000 g supernatant) of castrated male Sprague Dawley EOPS rats
T1 sequence (P15207 1-902): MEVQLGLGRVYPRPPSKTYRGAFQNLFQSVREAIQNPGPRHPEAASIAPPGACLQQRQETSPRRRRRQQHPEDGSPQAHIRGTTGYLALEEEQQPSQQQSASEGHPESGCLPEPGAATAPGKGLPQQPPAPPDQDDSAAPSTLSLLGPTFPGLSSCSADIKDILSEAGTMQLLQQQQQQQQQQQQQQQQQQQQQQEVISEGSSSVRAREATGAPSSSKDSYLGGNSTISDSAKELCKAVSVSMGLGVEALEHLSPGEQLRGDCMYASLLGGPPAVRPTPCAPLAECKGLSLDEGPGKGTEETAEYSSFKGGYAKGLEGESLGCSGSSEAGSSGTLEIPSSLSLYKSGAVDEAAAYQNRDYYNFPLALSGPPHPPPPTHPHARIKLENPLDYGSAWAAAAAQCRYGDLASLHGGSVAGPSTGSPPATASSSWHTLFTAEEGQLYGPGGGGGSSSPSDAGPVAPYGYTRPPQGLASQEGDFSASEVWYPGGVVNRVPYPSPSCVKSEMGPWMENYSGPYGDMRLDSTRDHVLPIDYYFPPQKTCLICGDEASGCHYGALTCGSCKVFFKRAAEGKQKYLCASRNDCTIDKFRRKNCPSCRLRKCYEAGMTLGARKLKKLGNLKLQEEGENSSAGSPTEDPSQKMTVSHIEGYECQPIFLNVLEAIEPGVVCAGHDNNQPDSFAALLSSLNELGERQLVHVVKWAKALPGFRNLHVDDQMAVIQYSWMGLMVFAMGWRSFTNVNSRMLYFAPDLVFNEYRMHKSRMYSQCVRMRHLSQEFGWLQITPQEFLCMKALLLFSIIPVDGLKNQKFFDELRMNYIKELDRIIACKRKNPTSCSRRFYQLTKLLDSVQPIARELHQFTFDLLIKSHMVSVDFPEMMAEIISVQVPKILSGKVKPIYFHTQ
Assay: Study of androgenic receptors: relative binding affinity (RBA) versus tritiated testosterone in prostate cytosol of castrated rats
Design: species or system male rats of the Sprague Dawley EOPS strain
Details: 24 H incubation; testosterone=100; RBA=100(CH)/(CX)
Experimental: Male rats of the Sprague Dawley EOPS strain weighing 180 to 200 g, castrated 24 hours previously, were killed and the prostate was removed, weighed and homogenized at 0° C. with a potter glass in a buffered solution (Tris 10 mM, saccharose 0.25M, PMSF (phenyl methane sulfonyl fluoride) 0.1 mM, sodium molybdate 20 mM, HCl pH 7.4 into which was added extemporaneously […] of DTT (DL dithiothreitol) at a rate of 1 g of tissue per 8 ml of buffer solution. The homogenate was then ultracentrifuged at 0° C. for 30 minutes at 209,000 g and the aliquots of supernatant (=cytosol) were incubated for 30 minutes and 24 hours with a concentration (T) of tritiated testosterone and in the presence of increasing concentrations (0 to 2500×10^-9 M) of cold testosterone or the test products. The concentration of bound tritiated testosterone (B) was then measured for each incubate by adsorption method of carbon-dextran. The relative affinity of bonding (RBA) was calculated.
The following two curves were graphed: the percentage of the bound tritiated hormone B/T as a logarithmic function of the concentration of the cold hormone and B/T as a logarithmic function of the concentration of the tested cold product. The line of the equation I50 =(B/Tmax+B/Tmin)/2 was determined.
B/T max=% of the bound tritiated hormone for an incubation of this tritiated hormone at concentration (T). […]

| SMILES | relative affinity of bonding (RBA) |
| --- | --- |
| CN1C(=S)N(c2ccc(C#N)c(C(F)(F)F)c2)C(=O)C12CCCC2 [Example 3, 4-(1-methyl-4-oxo-2-thioxo-1,3-diazaspiro(4,4)nonan-3-yl)-2-trifluoromethyl-benzonitrile] | 27 |
| CCC1(CC)C(=O)N(c2ccc(C#N)c(C(F)(F)F)c2)C(=S)N1C [Example 5, 4-(4,4-diethyl-3-methyl-5-oxo-2-thioxo-1-imidazolidinyl)-2-trifluoromethyl-benzonitrile] | 8 |
